# From patent US5120744A, “Substituted (quinolin-2-yl-methoxy)phenylthioureas” (Bayer Aktiengesellschaft, priority 1989, dated 1992)
# Tested on: lipoxygenase
# Experiment: lipoxygenase inhibition: release of leukotriene B4 (LTB4) from polymorphonuclear rat leukocytes (PMN), reverse phase HPLC, after adding substances and Ca ionophore
# Assay type: cell-based
# Settings: read-out: LO inhibition IC50
# Protocol: As a measure of the lipoxygenase inhibition, the release of leukotriene B4 (LTB4) from polymorphonuclear rat leukocytes (PMN) was determined by means of reverse phase HPLC according to Borgeat, P. et al., Proc. Nat. Acad. Sci. 76, 2148-2152 (1979) after adding substances and Ca ionophore. The in vivo activity of the compounds was determined using the mouse ear inflammation model according to Young, J. M. et al., J. of Investigative Dermatology 82, 367-371, (1984).
row,SMILES,IC50 [nM]
1,"Cc1cc([N+](=O)[O-])ccc1NC(=S)Nc1ccc(OCc2ccc3ccccc3n2)cc1 [Example 3, N-(2-Methyl-4-nitrophenyl)-N'-4-(quinolin-2-yl-methoxy)phenyl-thiourea]",36
2,"O=C(NC(=S)Nc1ccc(OCc2ccc3ccccc3n2)cc1)c1ccc(Cl)cc1 [Example 6, N-(4-Chlorobenzoyl)-N'-4-(quinolin-2-yl-methoxy)-phenyl-thiourea]",360
3,Cc1cc(Cl)c(Cl)cc1NC(=S)Nc1ccc(OCc2ccc3ccccc3n2)cc1 [Example 5],410
4,"Cc1cc([N+](=O)[O-])c(Cl)cc1NC(=S)Nc1ccc(OCc2ccc3ccccc3n2)cc1 [Example 4, N-(2-Methyl-4-nitro-5-chlorophenyl)-N'-4-(quinolin-2-yl-methyloxy)phenyl-thiourea]",33
5,"Cc1cc(Cl)ccc1NC(=S)Nc1ccc(OCc2ccc3ccccc3n2)cc1 [Example 8, N-(2-Methyl-4-chlorophenyl)-N'-4-(quinolin-2-yl-methoxy)phenyl-thiourea]",290
6,"N#CC1(NC(=S)Nc2ccc(OCc3ccc4ccccc4n3)cc2)CCCCC1 [Example 7, N-(1-Cyano-cyclohexyl)-N'-4-(quinolin-2-yl-methoxy)phenyl-thiourea]",240
